ChEMBL document CHEMBL1201862, “PubChem BioAssay data set” (2004)
The source made the active and inactive calls. Rule as the data show it, for most assays here: actives have a measured EC50 and inactives only a lower limit.

Columns and labels:
[1] = Luminescence Cell-Based Dose Response HTS to Identify Inhibitors of 5'UTR Stem-Loop Driven Prion Protein mRNA Translation in H4 Neuroglioblastoma Cells. [Related pubchem assays: 1827 (Project Summary), 1813 (Primary HTS)]; type: functional
[2] = luciferase reporter signal suppression in cells – H4 neuroglioma cells, luminescence, dose response (AID 1990); type: functional, cell-based
[3] = alpha-synuclein stem-loop luciferase translation blockers – H4 neuroglioma cells, luminescence, confirmation (AID 1988); type: functional, cell-based
[4] = molecular target: T1, Heat shock factor protein 1 (Mus musculus, UniProt P38532); assay: decrease of HSF1-responsive luciferase luminescence – cell-based, NIH3T3, dose retest, confirmation (AID 2382); type: functional;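 also: NIH3T3 fibroblasts with HSF1-driven luciferase reporter stressed by proteasome inhibitor MG132; luminescence from HSF1-driven luciferase expression after 8 hours of MG132 stress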
T1 sequence (P38532 whole entry): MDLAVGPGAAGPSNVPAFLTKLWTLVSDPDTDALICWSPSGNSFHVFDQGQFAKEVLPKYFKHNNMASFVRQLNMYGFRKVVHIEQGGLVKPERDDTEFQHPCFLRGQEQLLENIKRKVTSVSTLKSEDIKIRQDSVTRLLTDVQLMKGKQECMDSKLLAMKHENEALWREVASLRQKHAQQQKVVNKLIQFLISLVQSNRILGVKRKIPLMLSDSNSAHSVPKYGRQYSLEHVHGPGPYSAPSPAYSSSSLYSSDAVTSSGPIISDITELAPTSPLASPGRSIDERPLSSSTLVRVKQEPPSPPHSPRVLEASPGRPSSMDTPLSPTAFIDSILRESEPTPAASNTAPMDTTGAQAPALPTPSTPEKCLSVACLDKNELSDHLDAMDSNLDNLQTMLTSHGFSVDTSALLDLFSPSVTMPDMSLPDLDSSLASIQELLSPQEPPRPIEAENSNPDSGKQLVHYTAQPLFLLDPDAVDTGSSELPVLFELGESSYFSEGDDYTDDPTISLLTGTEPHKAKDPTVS

[5] = molecular target: T2, Corticotropin-releasing factor receptor 2/Corticotropin-releasing factor-binding protein (Homo sapiens, UniProt P24387+Q13324); assay: Dose Response confirmation of uHTS hits for small molecule antagonists of the CRF-binding protein and CRF-R2 receptor complex.; type: functional; conditions: read-out: IC50_Mean
T2 sequence (Q13324 whole entry): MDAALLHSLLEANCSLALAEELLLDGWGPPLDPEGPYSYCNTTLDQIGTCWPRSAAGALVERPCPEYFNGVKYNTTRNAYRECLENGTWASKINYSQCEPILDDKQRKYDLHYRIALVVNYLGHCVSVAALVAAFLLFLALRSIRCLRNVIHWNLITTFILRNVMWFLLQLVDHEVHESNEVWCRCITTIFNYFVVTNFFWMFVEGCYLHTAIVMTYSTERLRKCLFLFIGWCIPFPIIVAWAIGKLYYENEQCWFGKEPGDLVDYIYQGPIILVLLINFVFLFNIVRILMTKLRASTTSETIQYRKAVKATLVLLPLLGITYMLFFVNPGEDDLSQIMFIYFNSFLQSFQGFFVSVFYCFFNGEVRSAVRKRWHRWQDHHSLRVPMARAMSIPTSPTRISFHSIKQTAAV
T2 sequence (P24387 whole entry): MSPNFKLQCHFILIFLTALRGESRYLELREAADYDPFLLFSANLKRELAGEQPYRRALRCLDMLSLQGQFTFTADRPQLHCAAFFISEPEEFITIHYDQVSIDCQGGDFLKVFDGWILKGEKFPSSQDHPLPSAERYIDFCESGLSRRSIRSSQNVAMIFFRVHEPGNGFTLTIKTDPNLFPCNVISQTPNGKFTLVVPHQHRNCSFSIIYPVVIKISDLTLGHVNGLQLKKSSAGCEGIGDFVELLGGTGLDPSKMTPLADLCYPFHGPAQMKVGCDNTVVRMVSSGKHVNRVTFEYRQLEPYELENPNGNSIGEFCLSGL

[6] = molecular target: T2, Corticotropin-releasing factor receptor 2/Corticotropin-releasing factor-binding protein; assay: activators of CRF receptor 2 with binding protein – uHTS hits, confirmation (AID 602473); type: functional; conditions: read-out: EC50_Mean

SMILES	EC50 [4]	IC50 [5]	EC50 [6]	further results
Cc1c(Cc2ccccc2)sc(N)c1C(N)=O				EC50 [1]: > 120 µM (not active); EC50 [2]: 22.7 µM (active); EC50 [3]: > 120 µM (not active)
COc1ccc(CN=C(S)Nc2ccc(-c3ccccc3)cc2)cc1				EC50 [1]: > 120 µM (not active); EC50 [2]: > 120 µM (not active); EC50 [3]: > 120 µM (not active)
CCc1cc(C)cc(OCCNC(=O)c2cncc(Br)c2)c1	> 195 µM (not active)			
CCN(c1ccc(NS(=O)(=O)c2cc(Cl)ccc2Cl)cc1)C(C)C		> 47.1 µM (inactive)	> 53 µM (inactive)	
Oc1ccc(Br)cn1				EC50 [1]: > 120 µM (not active); EC50 [2]: > 120 µM (not active); EC50 [3]: > 120 µM (not active)
COc1ccc(CN2C(=O)[C@@H]3Cc4c([nH]c5ccccc45)C(C)(C)N3C2=O)cc1				EC50 [1]: > 120 µM (not active); EC50 [2]: > 120 µM (not active); EC50 [3]: > 120 µM (not active)
CCCNC(=O)COc1ccc2c(=O)c(Oc3ccccc3F)coc2c1	> 195 µM (not active)			
Cc1cc(C)n(C(CC(=O)O)C(=O)O)n1 (configuration not stated)	> 195 µM (not active)			
CN(c1ccccc1C(=O)Nc1cccc([N+](=O)[O-])c1)S(C)(=O)=O				EC50 [1]: 16.8 µM (active); EC50 [2]: > 120 µM (not active); EC50 [3]: > 120 µM (not active)
CCC(=O)Nc1cc(Cl)ccc1N1CCN(C(=O)CC)CC1		> 47.1 µM (inactive)	> 53 µM (inactive)	
COc1ccc(N=C(S)Nc2ccc(F)cc2)c(OC)c1	> 195 µM (not active)			
CCOC(=O)c1c(C(F)(F)C(F)(F)C(F)(F)C(F)(F)F)n[nH]c1C		> 47.1 µM (inactive)	> 53 µM (inactive)	
CCOC(=O)c1cc(C#N)c(N2CCN(c3ccccn3)CC2)nc1-c1ccccc1		> 47.1 µM (inactive)	> 53 µM (inactive)	
COc1ccc(CCN2C(=O)CC(Cc3ccccc3)C2=O)cc1OC (configuration not stated)		> 47.1 µM (inactive)	> 53 µM (inactive)	
COc1ccc(-c2nc3n(n2)C(c2ccccc2)C2=C(O)CCCC2=N3)cc1OC (configuration not stated)	> 195 µM (not active)			
CC(=O)Nc1ccc(S(=O)(=O)N2CCC(c3nnc(-c4ccc(C)cc4)o3)CC2)cc1		> 47.1 µM (inactive)	> 53 µM (inactive)	
Cc1cccc2cc(CN(Cc3ccccc3)C(S)=NCCCN(C)C)c(O)nc12	> 195 µM (not active)			
COc1ccc(NC(=O)c2sc3nc(N4CCCC4)c4c(c3c2N)CC(C)(C)OC4)c(OC)c1				EC50 [1]: 31.3 µM (active); EC50 [2]: 35.2 µM (active); EC50 [3]: 14.7 µM (active)
Cc1ccnc(N2CCCC(C(=O)NCc3cccs3)C2)n1 (configuration not stated)	> 195 µM (not active)			
CC(=O)Nc1cc(C(=O)N2CCC3(CC2)OCCO3)ccc1S(=O)(=O)c1ccc(C)cc1		> 47.1 µM (inactive)	> 53 µM (inactive)	
Cc1c(C(=O)NCC2CCCO2)sc2nc(-c3ccc(F)cc3)cn12 (configuration not stated)		> 47.1 µM (inactive)	> 53 µM (inactive)	
Cc1cc(C)nc(SCCC(=O)Nc2ccccc2C)n1		> 47.1 µM (inactive)	> 53 µM (inactive)	
Cc1ccnc(N2CCCC(C(=O)NC3CC3)C2)n1 (configuration not stated)		> 47.1 µM (inactive)	> 53 µM (inactive)	
C/C(=N\NS(=O)(=O)c1ccccc1)c1ccc2c(c1)OCCO2	> 195 µM (not active)			
O=S1(=O)CC/C(=N\Nc2ccc(F)cc2)c2ccsc21	> 195 µM (not active)			
